The test system of this assay is GFP-tagged proteins in HAP1 cells. The assay is described as follows: GFP intron-tagged cell pool / arrayed clones, time-lapse imaging of protein levels and localization. The class given is cell-based. Here is the method: For the generation of lentiviral particles, HEK293T cells were transiently transfected with the intron-targeting library and packaging plasmids psPAX2, pMD2.G using PEI transfection. After 12 h the media was replaced with IMDM supplemented with 10% FBS and P/S. Viral supernatant was collected 48 h after transfection and stored at −80° C. HAP1 cells were transduced with virus and selected with puromycin for three days. Multiplicity of infection (MOI) was 0.2 and transduction was done at a coverage of 500×. After puromycin selection, cells were grown for one day in media without puromycin before being seeded for transfection (8 million cells per 15 cm dish, 48 million cells in total). One day after seeding, each dish was co-transfected with 20 μg pX330 expressing Cas9-BSD and the generic sgRNA and 10 μg EGFP donor plasmid with 90 μl Turbofection in 2.5 ml OptiMEM as described by the manufacturer. Transfection efficiency was approximately 10% as determined by a transfection done in parallel with pX330 Cas9-mCherry and the EGFP donor plasmid using the same ratio. The next day, cells were subjected to a transient selection using Blasticidin (10 μg/ml) for 24 h. After selection, cells were maintained in full media without Blasticidin and sorted five days after transfection by flow cytometry using a Sony Cell Sorter SH800ZD. 0.03% cells were GFP-positive and in total 24,300 of those GFP-positive cells were sorted and the cell population was expanded for 7 days before DNA was isolated to determine sgRNA abundance in the cell population.
To obtain clonal cell lines, cells were seeded at a concentration of 0.7 cells per well in 96-well cell culture plates. After 9 days of clonal expansion, 768 colonies were harvested using trypsin and cell suspensions were transferred in equal amounts to eight 96-well imaging plates (Perkin Elmer CellCarrier Ultra) and eight corresponding 96-well cell culture plates. After 24 h, cells on the imaging plates were imaged on a Perkin Elmer Opera Phenix High Content Screening System (5 fields of view per well, 63× water-immersion objective, confocal mode, excitation: 488 nm, […], 700 ms). Images were processed using Cell Profiler. To identify the intron-targeting sgRNAs expressed in imaged cells, multiplexed amplicon sequencing of the sgRNA regions was performed in the corresponding clones on the eight 96-well cell culture plates. Cells were lysed and cell lysates were used for PCR to amplify the sgRNA region in each clone using barcoded primers flanking the sgRNA region (36 different 5-mers added to the 5′end of the forward primer and 24 different 5-mers added to the 5′end of the reverse primer, 768 of all possible 864 combinations were used). PCR reactions were pooled and column purified before being send for sequencing by a commercial sequencing service. NGS reads were demultiplexed using Cutadapt (see Martin, M. EMBnet. journal, [S.I.], v. 17, n. 1, p. pp. 10-12, may 2011) and sgRNA read counts for each individual well were obtained using MAGeCK (see, Li (2014) Genome Biol 15, 554 (2014). For further analysis clones were excluded, for which either no cells in any of the 5 fields of view that were imaged were observed, no sequencing reads for the corresponding well were observed or for which polyclonal cell populations as determined by imaging or detection of multiple sgRNAs per well were observed. Using that strategy, images of 335 clones were obtained for which the expressed intron-targeting sgRNA corresponding to the tagged protein could be identified.
Live cell imaging was performed on a PerkinElmer Opera Phenix microscope with excitation laser 488 nm, and emission filter 500-550 nm, 700 ms.
Identification of the expressed sgRNAs by in situ sequencing was performed by following and modifying published protocols, see, e.g., Feldman (2019) loc. cit; Ke (2013) Nat Methods 10, 857-60; and Larsson (2010) Nat Methods 7, 395-7. […]

[1] abbreviates: clonal cell line, 1 μM (FIG. 10).

This note sets out measurements from patent US20240141445A1, “NOVEL METHOD FOR POOLED INTRON TAGGING FOR REAL TIME DRUG SCREENING” (CeMM - Forschungszentrum für Molekulare Medizin GmbH, priority 2019, published 2024).

Structures are written as SMILES.

With `CN(Cc1cnc2nc(N)nc(N)c2n1)c1ccc(C(=O)N[C@@H](CCC(=O)O)C(=O)O)cc1` [MTX, methotrexate], for the setting “1 μM (FIG. 10)”, the PADI1 protein level result is “decreases”, the RUVBL1 protein level entry was “decreases”, the “nuclear foci of GFP-tagged DNMT1” value was “disappearance of nuclear DNMT1 foci” and the “nuclear signal of GFP-tagged NUDT21” value was “gain of nuclear signal”. Moreover, where the note is “1 μM (FIG. 10)”, the “nuclear signal of GFP-tagged TPI1” value is reported as “gain of nuclear signal” and the “nuclear signal of GFP-tagged transcription factor DR1” value is recorded as “gain of nuclear signal”. The “localization of GFP-tagged ACLY” value (24 h treatment, 1 μM (FIG. 10)) is recorded as “increased nuclear localization”. Under setting [1], the “localization of GFP-tagged RPA1” value was “formation of nuclear foci” and the “localization of GFP-tagged RPA2” value is listed as “formation of nuclear foci”.

With `Cc1sc2c(c1C)C(c1ccc(Cl)cc1)=N[C@@H](CC(=O)NCCCCCCCCNC(=O)COc1cccc3c1C(=O)N(C1CCC(=O)NC1=O)C3=O)c1nnc(C)n1-2` (some centres unmarked) [dBET6], where the note is “cell pool, FIG. 6e”, the “localization of GFP-tagged AKAP8” value is recorded as “gain of nuclear foci”, the “localization of GFP-tagged FUBP3” value is given as “loss of subnuclear localization patterns”, the “localization of GFP-tagged MEAF1” value is “loss of subnuclear localization patterns” and the “localization of GFP-tagged SFPQ” value is listed as “gain of nuclear foci”. Further, for the setting “cell pool, FIG. 6e”, the “nuclear intensity of GFP-tagged UNG” value is listed as “loss of nuclear intensity”.
